These results are taken from US12686703B2, “Cosmetic tetrapeptide, composition and use” (Sederma, priority 2020, dated 2026).

Marks after values point to notes of the source that are not given here. Where a SMILES comes first, the peptide text is derived from it. The star is where a group is joined. Palmitoyl = CCCCCCCCCCCCCCCC(=O)*

What all share (type): cell-based
Assay [1] has as its system Fibrillin 1. Briefly: Immunofluorescence assay of Fibrillin 1 formation in normal human fibroblasts. As to conditions: 8 ppm; NHF, five-day incubation; p < 0.05. The protocol: Normal human fibroblasts (NHF) are cultured for at least 24 hours in fibroblast growth medium containing serum. Once confluence was reached, the cells are seeded, and the actives and corresponding controls diluted in a culture medium are added. At the end of a five-day incubation period, the supernatant is removed, the cells are washed with PBS and fixed. The cells are then incubated with the primary Fibrillin 1 monoclonal antibody (11C1.3) (Thermo Fisher) diluted in blocking buffer at a concentration of 1:200. The cells are incubated. The primary antibody is removed, and the cells are washed with PBS. The secondary antibody was added at a dilution of 1:1000 in blocking buffer, then removed and the cells are washed with PBS. The formation of Fibrillin 1 by the cells is visualized using a fluorescence microscope. The obtained images are analyzed using an image processing software assigning a numerical value to the coverage density.

Assay [2] relates to whole hair follicles isolated from scalp explants. The assay can be described thus: Hair growth from hair follicle bulbs (isolated follicles in culture). The protocol:
Whole follicles (including the infundibulum, upper sheath, bulge, lower sheath, and bulb) are isolated by microdissection from scalp explants issued from surgery. On first day (DO), the hairs are placed individually in wells and keep alive at 37° C. in a humid atmosphere, enriched with 5% CO2, in an adapted culture medium.
Peptide solutions at 10 ppm and 5 ppm are prepared in the culture medium with 0.1% DMSO.
On D0, D3, D5 and D7, the peptide products are incorporated into the culture medium. The culture media are completely renewed for each treatment. The control cases receive no treatment other than renewal of the culture medium.
On day D0, the hairs are removed and stored frozen at −80° C. On D10, the hairs from each case are taken and treated in the same way.
A photograph of the isolated hairs is taken on DO to measure the hair from the bulb to the end of the hair shaft using an image analysis software. The photographs and length measurements are repeated on D3, D5, D7 and D10. The growth of each hair is monitored individually.
During the study, the hairs grow. To estimate the effect of the peptide, the average hair length between the peptide and the solvent control are compared, for each time (see below Table 5).

For assay [3], the system named is Outer Root Sheath Keratinocytes (ORSK). The assay can be described thus: Proliferation study (EdU) on outer root sheath keratinocytes. As to conditions: 5 ppm, p < 0.01. The protocol:
(§1) 2.1—Proliferation Studies on Cell Cultures (Hair Follicle Dermal Papilla Cells (HFDPC) and Outer Root Sheath Keratinocytes (ORSK))
(§2) The cells are seeded in adapted culture media and incubated for 24 h. Then the culture media are removed and changed for test media and cells are incubated. The cells are thereafter contacted with the peptide (diluted at different concentrations in DMSO) and with EdU (Ethynyldeoxyuridine), a thymidine-analogue nucleoside which is incorporate into the newly synthetized in proliferating cells. The cultures are stopped, and cells are labelled using a Edu detection kit.

In assay [4] the test system is Collagen I (PIP). The assay can be described thus: ELISA assay of collagen I synthesis (PIP assay) in normal human fibroblasts. As to conditions: concentrations of 5 to 15 ppm; NHF, 72 h contact; vs excipient; p < 0.01. Here is the method: Normal human fibroblasts (NHF) in culture are brought into contact with the products to be tested or their excipient (negative control) for 72 h. At the end of the contact, the culture supernatants are removed, and the syntheses of the dermal macromolecules are estimated by ELISA assays. An estimate of cell viability is carried out by Hoechst assay to weight the obtained data.
Collagen I is evaluated via the PIP assay (carboxy-terminal propeptide of procollagen type I) which is a peptide fragment resulting from the enzymatic degradation of procollagen when the latter is excreted outside the fibroblast (therefore in the culture medium where the assay is carried out).
A general note: ELISA stands for enzyme-linked immunosorbent assay.

Assay [5] deals with Hair Follicle Dermal Papilla Cells (HFDPC). The assay can be described thus: Proliferation study (EdU) on hair follicle dermal papilla cells. The conditions noted are these: p < 0.01. Here is the method:
as §1, §2

As to `CCCCCCCCCCCCCCCC(=O)N[C@@H](CC(C)C)C(=O)N[C@@H](CC(C)C)C(=O)N[C@@H](C)C(=O)N[C@@H](CC(N)=O)C(=O)O` [Pal-LLAN-OH, palmitoyl-leucyl-leucyl-alanyl-asparagine] (Palmitoyl-LLAN-OH), the “Fibrillin 1” value in assay [1] was “+108% (p < 0.05)”. Also, the “Growth variation compared to solvent control (0.1% DMSO)” value is “+21% (nsd)” in assay [2] (5 ppm, D3, nsd); “+26%*” in assay [2] (5 ppm, D5, p < 0.05); “+32%**” in assay [2] (5 ppm, D7, p < 0.01); “+30%**” in assay [2] (5 ppm, D10, p < 0.01); “+16% (nsd)” in assay [2] (10 ppm, D3, nsd); “+28%*” in assay [2] (10 ppm, D5, p < 0.05). For the same compound, the “Growth variation compared to solvent control (0.1% DMSO)” value in assay [2] (10 ppm, D7, p < 0.01) is “+37%**”; in assay [2] (10 ppm, D10, p < 0.01), “+38%**”. For the same compound, the “Cell proliferation variation % vs. control solvent (DMSO)” value in assay [3] is given as “+55%”; in assay [5] (5 ppm), “+13.7%”; in assay [5] (10 ppm) it was “+22.15%”. In assay [4], the “Collagen I (PIP)” value is given as “+60%”.
